The values below come from US12122761B2, “2-azaspiro[3.4]octane derivatives as M4 agonists” (NOVARTIS AG, priority 2019, dated 2024).

Type in all cases: cell-based
The target in test [1] is T1, human cloned CHRM2 receptor (M2_CHO cells) (Homo sapiens, UniProt P08172).
T1 construct: expressed in transfected cells; host or cells: CHO-K1
T1 sequence (P08172 1-466): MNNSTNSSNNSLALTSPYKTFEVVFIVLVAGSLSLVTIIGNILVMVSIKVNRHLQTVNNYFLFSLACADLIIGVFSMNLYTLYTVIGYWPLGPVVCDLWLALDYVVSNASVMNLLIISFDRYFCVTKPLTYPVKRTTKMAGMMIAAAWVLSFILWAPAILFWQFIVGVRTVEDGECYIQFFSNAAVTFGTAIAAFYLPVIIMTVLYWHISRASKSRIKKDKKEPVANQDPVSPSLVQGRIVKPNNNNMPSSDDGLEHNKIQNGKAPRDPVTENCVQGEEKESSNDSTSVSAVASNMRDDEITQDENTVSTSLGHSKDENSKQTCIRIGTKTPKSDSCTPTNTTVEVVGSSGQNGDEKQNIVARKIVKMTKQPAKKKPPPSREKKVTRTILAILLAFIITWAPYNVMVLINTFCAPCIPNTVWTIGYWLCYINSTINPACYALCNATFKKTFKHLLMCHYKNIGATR
Nature of the test: CHRM2 Ca++ Flux Assay (agonist mode, FDSS 7000EX). Particulars: for Emax: Percent Activity measured to EC100 of Carbachol, read-out: M2 FDSS PA; for EC50: agonist mode, geometric mean if tested more than once, read-out: M2 FDSS EC50. The procedure, abridged: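 Agonist-mode Ca++ flux in CHO-K1 cells stably expressing human CHRM2, dye-loaded, then held 60 min at room temperature in buffer with 20 μM ATP before compound addition; traces read over 3 minutes. Four-parameter fit of triplicate wells; percent activity relative to Carbachol EC100.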

The target of test [2] is T2, human cloned CHRM3 receptor (M3_CHO cells) (Homo sapiens, UniProt P20309).
T2 construct: expressed in transfected cells; host or cells: CHO-K1
The experiment in a line: CHRM3 Ca++ Flux Assay (agonist mode, FDSS 7000EX). Particulars: for Emax: Percent Activity measured to EC100 of Carbachol, read-out: M3 FDSS PA; for EC50: agonist mode, geometric mean if tested more than once, read-out: M3 FDSS EC50. The method, boiled down: (§1)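 CHO-K1 cells stably expressing human M3 or M5 receptor were dye-loaded for at least 1 h in HBSS with 20 mM HEPES and 2.5 mM probenecid, then given 11-point compound doses in triplicate.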

Test [3] concerns the target T3, human cloned CHRM5 receptor (M5_CHO) (Homo sapiens, UniProt P08912).
T3 construct: expressed in transfected cells; host or cells: CHO (M5_CHO)
T3 sequence (P08912 1-532): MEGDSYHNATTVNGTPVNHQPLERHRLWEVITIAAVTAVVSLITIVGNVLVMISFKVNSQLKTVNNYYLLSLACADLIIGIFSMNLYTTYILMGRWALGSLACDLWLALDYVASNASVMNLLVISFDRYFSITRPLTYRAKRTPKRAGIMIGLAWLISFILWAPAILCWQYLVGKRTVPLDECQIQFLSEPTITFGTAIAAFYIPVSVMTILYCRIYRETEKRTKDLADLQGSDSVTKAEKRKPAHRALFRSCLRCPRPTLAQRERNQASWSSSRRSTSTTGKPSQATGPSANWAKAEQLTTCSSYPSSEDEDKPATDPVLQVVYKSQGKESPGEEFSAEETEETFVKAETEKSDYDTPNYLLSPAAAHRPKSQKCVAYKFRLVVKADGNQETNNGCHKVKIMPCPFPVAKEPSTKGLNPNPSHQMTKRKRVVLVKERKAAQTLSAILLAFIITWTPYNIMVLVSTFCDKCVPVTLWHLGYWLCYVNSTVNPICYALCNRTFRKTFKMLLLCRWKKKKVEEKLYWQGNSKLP
The experiment in a line: CHRM5 Ca++ Flux Assay (agonist mode, FDSS 7000EX). The conditions noted are these: for Emax: Percent Activity measured to EC100 of Carbachol, read-out: M5 FDSS PA; for EC50: agonist mode, geometric mean if tested more than once, read-out: M5 FDSS EC50. The procedure, abridged:
as §1

T2 sequence (P20309 whole entry): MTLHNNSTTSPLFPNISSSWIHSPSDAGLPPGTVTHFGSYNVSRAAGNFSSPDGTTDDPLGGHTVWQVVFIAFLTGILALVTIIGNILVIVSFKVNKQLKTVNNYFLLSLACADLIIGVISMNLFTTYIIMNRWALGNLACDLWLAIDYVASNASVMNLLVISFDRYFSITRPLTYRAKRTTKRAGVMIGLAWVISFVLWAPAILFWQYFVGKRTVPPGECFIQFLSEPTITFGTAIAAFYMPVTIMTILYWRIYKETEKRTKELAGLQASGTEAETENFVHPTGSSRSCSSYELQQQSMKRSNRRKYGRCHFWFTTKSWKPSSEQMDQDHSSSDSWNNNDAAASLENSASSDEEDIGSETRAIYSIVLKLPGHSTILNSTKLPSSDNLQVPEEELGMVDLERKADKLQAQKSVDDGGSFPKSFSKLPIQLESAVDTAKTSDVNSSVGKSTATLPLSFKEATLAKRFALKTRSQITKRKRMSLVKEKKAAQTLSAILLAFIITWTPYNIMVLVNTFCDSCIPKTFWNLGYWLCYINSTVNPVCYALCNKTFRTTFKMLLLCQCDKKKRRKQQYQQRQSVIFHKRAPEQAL

In the case of `c1ccc(C2CCN([C@@H]3CCC4(C3)CN(c3nncs3)C4)CC2)c(OC[C@H]2COCCO2)c1` [Example 3B, 2-((R)-6-(4-(2-(((R)-1,4-dioxan-2-yl)methoxy)phenyl)piperidin-1-yl)-2-azaspiro[3.4]octan-2-yl)-1,3,4-thiadiazole], the Emax stood at 16% in test [1], 0% in test [2] and 0% in test [3]. The EC50 is 0.018 µM in test [1], greater than 25 µM in test [2] and greater than 25 µM in test [3].
Turning to `c1ccc(C2CCN([C@@H]3CCC4(C3)CN(c3nncs3)C4)CC2)c(OC[C@@H]2COCCO2)c1` [Example 3C, 2-((R)-6-(4-(2-(((S)-1,4-dioxan-2-yl)methoxy)phenyl)piperidin-1-yl)-2-azaspiro[3.4]octan-2-yl)-1,3,4-thiadiazole], the values for the Emax in test [1], in test [2] and in test [3] were 18%, 0% and 0%, respectively. For the same compound, the EC50 in test [1] is 0.024 µM; in test [2], greater than 25 µM; in test [3], greater than 25 µM.
Consider `COc1ccccc1C1CCN([C@@H]2CCC3(C2)CN(c2nncs2)C3)CC1` [Example 3D, (R)-2-(6-(4-(2-methoxyphenyl)piperidin-1-yl)-2-azaspiro[3.4]octan-2-yl)-1,3,4-thiadiazole], for which the figures for the Emax in test [1], in test [2] and in test [3] were 17%, 0% and 0%, respectively. Moreover, the EC50 in test [2] and in test [3] was greater than 25 µM in each case.
Take `Fc1cccc(C2CCN([C@@H]3CCC4(C3)CN(c3nncs3)C4)CC2)c1OC1COC1` [Example 3E, (R)-2-(6-(4-(3-fluoro-2-(oxetan-3-yloxy)phenyl)piperidin-1-yl)-2-azaspiro[3.4]octan-2-yl)-1,3,4-thiadiazole]: the Emax stood at 31% in test [1], 0% in test [2] and 0% in test [3]. The EC50 is 0.191 µM in test [1], greater than 25 µM in test [2] and greater than 25 µM in test [3].
On to `COCCOc1ccccc1C1CCN([C@@H]2CCC3(C2)CN(c2nncs2)C3)CC1` [Example 3F, (R)-2-(6-(4-(2-(2-methoxyethoxy)phenyl)piperidin-1-yl)-2-azaspiro[3.4]octan-2-yl)-1,3,4-thiadiazole], for which the Emax in test [1], in test [2] and in test [3] was 0% throughout. The EC50 in test [2] and in test [3] was greater than 25 µM each time.
Turning to `CC(C)(O)COc1ccccc1C1CCN([C@@H]2CCC3(C2)CN(c2nncs2)C3)CC1` [Example 3G, (R)-1-(2-(1-(2-(1,3,4-thiadiazol-2-yl)-2-azaspiro[3.4]octan-6-yl)piperidin-4-yl)phenoxy)-2-methylpropan-2-ol], the figures for the Emax in test [1], in test [2] and in test [3] were 20%, 0% and 0%, respectively. Besides, the EC50 in test [1] is 0.304 µM; in test [2] it was greater than 25 µM; in test [3] it was greater than 25 µM.
As to `CC(C)(O)CCOc1ccccc1C1CCN([C@@H]2CCC3(C2)CN(c2nncs2)C3)CC1` [Example 3H, (R)-4-(2-(1-(2-(1,3,4-thiadiazol-2-yl)-2-azaspiro[3.4]octan-6-yl)piperidin-4-yl)phenoxy)-2-methylbutan-2-ol], the Emax in test [1], in test [2] and in test [3] was 0% each time. Also, the EC50 in test [2] and in test [3] was greater than 25 µM each time.
With `COc1ccccc1C1CCN([C@@H]2CCC3(C2)CN(c2ccns2)C3)CC1` [Example 3I, (R)-5-(6-(4-(2-methoxyphenyl)piperidin-1-yl)-2-azaspiro[3.4]octan-2-yl)isothiazole], the Emax in test [1] amounted to 40%; in test [2], 0%; in test [3], 0%. Also, the EC50 in test [2] and in test [3] was greater than 25 µM throughout.

The EC50 is the concentration at which the effect is half-maximal.
